Assay results as given in patent US20240138411A1, “METHOD OF […] OF SUGARCANE” (CORTEVA AGRISCIENCE LLC, priority 2021, published 2024).

Test system: sugarcane
Test: Sugarcane flowering inhibition field trials, floral induction rated on UFSCar scale
Assay type: in vivo
Description: In order to explore the activity of florpyrauxifen as flowering inhibitor in sugarcane, field studies were carried out. Florpyrauxifen-benzyl was tested at rates from 2 to 20 grams active ingredient per hectare (g ai/ha) and compared to Ethrel® 720 (Bayer), the standard treatment. The flowering inhibition effect was assessed by checking the floral induction in sugarcane through the percentage scale recommended by UFSCar (Federal University of Sao Carlos, Sao Paulo, Brazil).
Four trials were carried out in sugarcane where florpyrauxifen-benzyl (Rinskor®), applied at a rate of 2 to 20 g ai/ha, was compared to ethephon (Ethrel® 720) applied at a rate of 475 g ai/ha. Control plots of untreated sugarcane were also evaluated. Rinskor® and Ethrel® 720 were diluted in water and a single application for each study (backpack sprayer) was performed delivering 50 L of spray solution per ha at the reproductive stage of sugarcane and at a maximum 150 days before harvest. The activity of florpyrauxifen-benzyl as a flowering inhibitor was measured via assessments (Scale of flowering inhibition—see chart 1) performed at 0, 14, 30, 45, 60, 75, 90, 120, 150 days after application, or up to harvest time. The assessments were measured in sugarcane stems, rating the flowering induction according to the UFSCar scale shown below. Significance of treatment effect was evaluated with F-approximate test (α=0.1) and least square means from different treatments were compared with Tukey's test.

COc1c(Cl)ccc(-c2nc(C(=O)OCc3ccccc3)c(Cl)c(N)c2F)c1F [Rinskor, florpyrauxifen-benzyl] was tested, and the “% Referring to Scale” value (Table 1, 120 DAA, 20 g ai/ha) was 12.8%, the “Frequency 1/1 (0%)” value (Table 1, 120 DAA, 20 g ai/ha) was 15.0% and the “Frequency 2/1 (15%)” value (Table 1, 120 DAA, 20 g ai/ha) was 85.0%. The “Frequency 3/1 (30%)” value (Table 1, 120 DAA, 20 g ai/ha) was 0.0%, the “Frequency 4/1 (50%)” value (Table 1, 120 DAA, 20 g ai/ha) was 0.0% and the “Frequency 4/2 (80%)” value (Table 1, 120 DAA, 20 g ai/ha) was 0.0%. For the same compound, the “Frequency 4/3 (90%)” value (Table 1, 120 DAA, 20 g ai/ha) was 0.0%, the “Frequency 4/4 (100%)” value (Table 1, 120 DAA, 20 g ai/ha) was 0.0% and the “% Referring to Scale” value (Table 2, 75 DAA, 2 g ai/ha) was 1.1%. The “Frequency 1/1 (0%)” value (Table 2, 75 DAA, 2 g ai/ha) was 92.5%, the “Frequency 2/1 (15%)” value (Table 2, 75 DAA, 2 g ai/ha) was 7.5% and the “Frequency 3/1 (30%)” value (Table 2, 75 DAA, 2 g ai/ha) was 0.0%. The “Frequency 4/1 (50%)” value (Table 2, 75 DAA, 2 g ai/ha) was 0.0%, the “Frequency 4/2 (80%)” value (Table 2, 75 DAA, 2 g ai/ha) was 0.0% and the “Frequency 4/3 (90%)” value (Table 2, 75 DAA, 2 g ai/ha) was 0.0%. The “Frequency 4/4 (100%)” value (Table 2, 75 DAA, 2 g ai/ha) was 0.0%, the “% Referring to Scale” value (Table 2, 75 DAA, 5 g ai/ha) was 0.8% and the “Frequency 1/1 (0%)” value (Table 2, 75 DAA, 5 g ai/ha) was 95.0%. The “Frequency 2/1 (15%)” value (Table 2, 75 DAA, 5 g ai/ha) was 5.0%, the “Frequency 3/1 (30%)” value (Table 2, 75 DAA, 5 g ai/ha) was 0.0% and the “Frequency 4/1 (50%)” value (Table 2, 75 DAA, 5 g ai/ha) was 0.0%. The “Frequency 4/2 (80%)” value (Table 2, 75 DAA, 5 g ai/ha) was 0.0%, the “Frequency 4/3 (90%)” value (Table 2, 75 DAA, 5 g ai/ha) was 0.0% and the “Frequency 4/4 (100%)” value (Table 2, 75 DAA, 5 g ai/ha) was 0.0%. For the same compound, the “% Referring to Scale” value (Table 2, 75 DAA, 7 g ai/ha) was 0.8%, the “Frequency 1/1 (0%)” value (Table 2, 75 DAA, 7 g ai/ha) was 95.0% and the “Frequency 2/1 (15%)” value (Table 2, 75 DAA, 7 g ai/ha) was 5.0%. For the same compound, the “Frequency 3/1 (30%)” value (Table 2, 75 DAA, 7 g ai/ha) was 0.0%, the “Frequency 4/1 (50%)” value (Table 2, 75 DAA, 7 g ai/ha) was 0.0% and the “Frequency 4/2 (80%)” value (Table 2, 75 DAA, 7 g ai/ha) was 0.0%. The “Frequency 4/3 (90%)” value (Table 2, 75 DAA, 7 g ai/ha) was 0.0%, the “Frequency 4/4 (100%)” value (Table 2, 75 DAA, 7 g ai/ha) was 0.0% and the “% Referring to Scale” value (Table 2, 75 DAA, 10 g ai/ha) was 0.4%. The “Frequency 1/1 (0%)” value (Table 2, 75 DAA, 10 g ai/ha) was 97.5%, the “Frequency 2/1 (15%)” value (Table 2, 75 DAA, 10 g ai/ha) was 2.5% and the “Frequency 3/1 (30%)” value (Table 2, 75 DAA, 10 g ai/ha) was 0.0%. The “Frequency 4/1 (50%)” value (Table 2, 75 DAA, 10 g ai/ha) was 0.0%, the “Frequency 4/2 (80%)” value (Table 2, 75 DAA, 10 g ai/ha) was 0.0% and the “Frequency 4/3 (90%)” value (Table 2, 75 DAA, 10 g ai/ha) was 0.0%. For the same compound, the “Frequency 4/4 (100%)” value (Table 2, 75 DAA, 10 g ai/ha) was 0.0%, the “% Referring to Scale” value (Table 2, 75 DAA, 15 g ai/ha) was 1.1% and the “Frequency 1/1 (0%)” value (Table 2, 75 DAA, 15 g ai/ha) was 92.5%. For the same compound, the “Frequency 2/1 (15%)” value (Table 2, 75 DAA, 15 g ai/ha) was 7.5%, the “Frequency 3/1 (30%)” value (Table 2, 75 DAA, 15 g ai/ha) was 0.0% and the “Frequency 4/1 (50%)” value (Table 2, 75 DAA, 15 g ai/ha) was 0.0%. The “Frequency 4/2 (80%)” value (Table 2, 75 DAA, 15 g ai/ha) was 0.0%, the “Frequency 4/3 (90%)” value (Table 2, 75 DAA, 15 g ai/ha) was 0.0% and the “Frequency 4/4 (100%)” value (Table 2, 75 DAA, 15 g ai/ha) was 0.0%. The “% Referring to Scale” value (Table 2, 75 DAA, 20 g ai/ha) was 0.8%, the “Frequency 1/1 (0%)” value (Table 2, 75 DAA, 20 g ai/ha) was 95.0% and the “Frequency 2/1 (15%)” value (Table 2, 75 DAA, 20 g ai/ha) was 5.0%. The “Frequency 3/1 (30%)” value (Table 2, 75 DAA, 20 g ai/ha) was 0.0%, the “Frequency 4/1 (50%)” value (Table 2, 75 DAA, 20 g ai/ha) was 0.0% and the “Frequency 4/2 (80%)” value (Table 2, 75 DAA, 20 g ai/ha) was 0.0%. The “Frequency 4/3 (90%)” value (Table 2, 75 DAA, 20 g ai/ha) was 0.0%, the “Frequency 4/4 (100%)” value (Table 2, 75 DAA, 20 g ai/ha) was 0.0% and the “% Referring to Scale” value (Table 2, 90 DAA, 2 g ai/ha) was 60.3%. For the same compound, the “Frequency 1/1 (0%)” value (Table 2, 90 DAA, 2 g ai/ha) was 0.0%, the “Frequency 2/1 (15%)” value (Table 2, 90 DAA, 2 g ai/ha) was 0.0% and the “Frequency 3/1 (30%)” value (Table 2, 90 DAA, 2 g ai/ha) was 20.0%. The “Frequency 4/1 (50%)” value (Table 2, 90 DAA, 2 g ai/ha) was 32.5%, the “Frequency 4/2 (80%)” value (Table 2, 90 DAA, 2 g ai/ha) was 47.5% and the “Frequency 4/3 (90%)” value (Table 2, 90 DAA, 2 g ai/ha) was 0.0%. The “Frequency 4/4 (100%)” value (Table 2, 90 DAA, 2 g ai/ha) was 0.0%, the “% Referring to Scale” value (Table 2, 90 DAA, 5 g ai/ha) was 43.5% and the “Frequency 1/1 (0%)” value (Table 2, 90 DAA, 5 g ai/ha) was 0.0%. The “Frequency 2/1 (15%)” value (Table 2, 90 DAA, 5 g ai/ha) was 0.0%, the “Frequency 3/1 (30%)” value (Table 2, 90 DAA, 5 g ai/ha) was 32.5% and the “Frequency 4/1 (50%)” value (Table 2, 90 DAA, 5 g ai/ha) was 67.5%. For the same compound, the “Frequency 4/2 (80%)” value (Table 2, 90 DAA, 5 g ai/ha) was 0.0%, the “Frequency 4/3 (90%)” value (Table 2, 90 DAA, 5 g ai/ha) was 0.0% and the “Frequency 4/4 (100%)” value (Table 2, 90 DAA, 5 g ai/ha) was 0.0%. The “% Referring to Scale” value (Table 2, 90 DAA, 7 g ai/ha) was 44.8%, the “Frequency 1/1 (0%)” value (Table 2, 90 DAA, 7 g ai/ha) was 0.0% and the “Frequency 2/1 (15%)” value (Table 2, 90 DAA, 7 g ai/ha) was 0.0%. For the same compound, the “Frequency 3/1 (30%)” value (Table 2, 90 DAA, 7 g ai/ha) was 37.5%, the “Frequency 4/1 (50%)” value (Table 2, 90 DAA, 7 g ai/ha) was 55.0% and the “Frequency 4/2 (80%)” value (Table 2, 90 DAA, 7 g ai/ha) was 7.5%. For the same compound, the “Frequency 4/3 (90%)” value (Table 2, 90 DAA, 7 g ai/ha) was 0.0%, the “Frequency 4/4 (100%)” value (Table 2, 90 DAA, 7 g ai/ha) was 0.0% and the “% Referring to Scale” value (Table 2, 90 DAA, 10 g ai/ha) was 37.4%. The “Frequency 1/1 (0%)” value (Table 2, 90 DAA, 10 g ai/ha) was 0.0%, the “Frequency 2/1 (15%)” value (Table 2, 90 DAA, 10 g ai/ha) was 7.5% and the “Frequency 3/1 (30%)” value (Table 2, 90 DAA, 10 g ai/ha) was 50.0%. For the same compound, the “Frequency 4/1 (50%)” value (Table 2, 90 DAA, 10 g ai/ha) was 42.5%, the “Frequency 4/2 (80%)” value (Table 2, 90 DAA, 10 g ai/ha) was 0.0% and the “Frequency 4/3 (90%)” value (Table 2, 90 DAA, 10 g ai/ha) was 0.0%. The “Frequency 4/4 (100%)” value (Table 2, 90 DAA, 10 g ai/ha) was 0.0%, the “% Referring to Scale” value (Table 2, 90 DAA, 15 g ai/ha) was 39.8% and the “Frequency 1/1 (0%)” value (Table 2, 90 DAA, 15 g ai/ha) was 0.0%. The “Frequency 2/1 (15%)” value (Table 2, 90 DAA, 15 g ai/ha) was 15.0%, the “Frequency 3/1 (30%)” value (Table 2, 90 DAA, 15 g ai/ha) was 25.0% and the “Frequency 4/1 (50%)” value (Table 2, 90 DAA, 15 g ai/ha) was 60.0%. For the same compound, the “Frequency 4/2 (80%)” value (Table 2, 90 DAA, 15 g ai/ha) was 0.0%, the “Frequency 4/3 (90%)” value (Table 2, 90 DAA, 15 g ai/ha) was 0.0% and the “Frequency 4/4 (100%)” value (Table 2, 90 DAA, 15 g ai/ha) was 0.0%. For the same compound, the “% Referring to Scale” value (Table 2, 90 DAA, 20 g ai/ha) was 46.0%, the “Frequency 1/1 (0%)” value (Table 2, 90 DAA, 20 g ai/ha) was 0.0% and the “Frequency 2/1 (15%)” value (Table 2, 90 DAA, 20 g ai/ha) was 5.0%. The “Frequency 3/1 (30%)” value (Table 2, 90 DAA, 20 g ai/ha) was 30.0%, the “Frequency 4/1 (50%)” value (Table 2, 90 DAA, 20 g ai/ha) was 52.5% and the “Frequency 4/2 (80%)” value (Table 2, 90 DAA, 20 g ai/ha) was 12.5%. For the same compound, the “Frequency 4/3 (90%)” value (Table 2, 90 DAA, 20 g ai/ha) was 0.0%, the “Frequency 4/4 (100%)” value (Table 2, 90 DAA, 20 g ai/ha) was 0.0% and the “% Referring to Scale” value (Table 2, 120 DAA, 2 g ai/ha) was 95.8%. The “Frequency 1/1 (0%)” value (Table 2, 120 DAA, 2 g ai/ha) was 0.0%, the “Frequency 2/1 (15%)” value (Table 2, 120 DAA, 2 g ai/ha) was 0.0% and the “Frequency 3/1 (30%)” value (Table 2, 120 DAA, 2 g ai/ha) was 0.0%. The “Frequency 4/1 (50%)” value (Table 2, 120 DAA, 2 g ai/ha) was 0.0%, the “Frequency 4/2 (80%)” value (Table 2, 120 DAA, 2 g ai/ha) was 5.0% and the “Frequency 4/3 (90%)” value (Table 2, 120 DAA, 2 g ai/ha) was 32.5%. For the same compound, the “Frequency 4/4 (100%)” value (Table 2, 120 DAA, 2 g ai/ha) was 62.5% and the “% Referring to Scale” value (Table 2, 120 DAA, 5 g ai/ha) was 96.5%.
